According to patent US20230242553A1, “PROCESS FOR THE PREPARATION OF 1-METHYL-6-[6-R2-5-METHYL-8-(METHYLAMINO)-4-[ (3AS,6AS)-5-METHYL-2,3,3A,4,6,6A-HEXAHYDROPYRROLO[2,3-C]PYRROL-1-YL]-9H-PYRIDO[2,3-B]INDOL-3-YL]-4-OXO-1,8-NAPHTHYRIDINE-3-CARBOXYLIC ACID HYDROCHLORIDE” (Hoffmann-La Roche Inc., priority 2020, published 2023):
Counter-ions that a name gives are not always drawn.

Test: Stability experiment of final compound: solid in sealed vial kept in oven, purity checked by UPLC
Assay type: physicochemical
Conditions: for Stability Result Solid at 20° C./7day (purity) / Stability Result Solid at 100° C./1 day (purity): 10 mg solid in 4 mL vial with sealed cap; for Stability Result Solid at 20° C./7day (purity): 7 days; for Stability Result Solid at 20° C./7day (purity) / Stability Result Solid at 100° C./1 day (purity) / Initial Purity: purity by UPLC; for Stability Result Solid at 100° C./1 day (purity): oven 100° C.; for Stability of HCl salt compared with freebase form: conclusion in words from Table 2; for Initial Purity: solid before storage
Text: Stability Experiment of Final Compound of Formula (I)
Freebase of Example 4: 6-[5-cyano-6-fluoro-8-(methylamino)-4-[(3aS,6aS)-5-methyl-2,3,3a,4,6,6a-hexahydropyrrolo[2,3-c]pyrrol-1-yl]-9H-pyrido[2,3-b]indol-3-yl]-1-methyl-4-oxo-1,8-naphthyridine-3-carboxylic acid; initial purity: 99.16%
HCl salt compound (Example 4): 6-[5-cyano-6-fluoro-8-(methylamino)-4-[(3aS,6aS)-5-methyl-2,3,3a,4,6,6a-hexahydropyrrolo[2,3-c]pyrrol-1-yl]-9H-pyrido[2,3-b]indol-3-yl]-1-methyl-4-oxo-1,8-naphthyridine-3-carboxylic acid; hydrochloride; initial purity: 98.50%
Freebase of Example 8: 6-[5,6-difluoro-8-(methylamino)-4-[(3aS,6aS)-5-methyl-2,3,3a,4,6,6a-hexahydropyrrolo[2,3-c]pyrrol-1-yl]-9H-pyrido[2,3-b]indol-3-yl]-1-methyl-4-oxo-1,8-naphthyridine-3-carboxylic acid; initial purity: 97.96%
HCl salt compound (Example 8): 6-[5,6-difluoro-8-(methylamino)-4-[(3aS,6aS)-5-methyl-2,3,3a,4,6,6a-hexahydropyrrolo[2,3-c]pyrrol-1-yl]-9H-pyrido[2,3-b]indol-3-yl]-1-methyl-4-oxo-1,8-naphthyridine-3-carboxylic acid; hydrochloride; initial purity: 97.80%
Condition: 10 mg of compound in 4 mL vial with sealed cap. Keep in oven at certain temperature for certain days. Then, the purity of solid was checked by UPLC.

Compound | Stability Result Solid at 20° C./7day (purity) (dihydrochloride) | Stability Result Solid at 100° C./1 day (purity) (dihydrochloride) | Stability of HCl salt compared with freebase form | Initial Purity | Stability Result Solid at 20° C./7day (purity) | Stability Result Solid at 100° C./1 day (purity)
CNc1cc(F)c(C#N)c2c1[nH]c1ncc(-c3cnc4c(c3)c(=O)c(C(=O)O)cn4C)c(N3CC[C@H]4CN(C)C[C@H]43)c12 [HCl salt compound (Example 4), 6-[5-Cyano-6-fluoro-8-(methylamino)-4-[(3aS,6aS)-5-methyl-2,3,3a,4,6,6a-hexahydropyrrolo[2,3-c]pyrrol-1-yl]-9H-pyrido[2,3-b]indol-3-yl]-1-methyl-4-oxo-1,8-naphthyridine-3-carboxylic acid; dihydrochloride] | 98.67% | 98.48% | much more stable than its freebase form | 98.50% |  | 
CNc1cc(F)c(C#N)c2c1[nH]c1ncc(-c3cnc4c(c3)c(=O)c(C(=O)O)cn4C)c(N3CC[C@H]4CN(C)C[C@H]43)c12 [Freebase of Example 4, 6-[5-cyano-6-fluoro-8-(methylamino)-4-[(3aS,6aS)-5-methyl-2,3,3a,4,6,6a-hexahydropyrrolo[2,3-c]pyrrol-1-yl]-9H-pyrido[2,3-b]indol-3-yl]-1-methyl-4-oxo-1,8-naphthyridine-3-carboxylic acid] |  |  |  | 99.16% | 95.73% | 93.35%
CNc1cc(F)c(F)c2c1[nH]c1ncc(-c3cnc4c(c3)c(=O)c(C(=O)O)cn4C)c(N3CC[C@H]4CN(C)C[C@H]43)c12 [HCl salt compound (Example 8), 6-[5,6-Difluoro-8-(methylamino)-4-[(3aS,6aS)-5-methyl-2,3,3a,4,6,6a-hexahydropyrrolo[2,3-c]pyrrol-1-yl]-9H-pyrido[2,3-b]indol-3-yl]-1-methyl-4-oxo-1,8-naphthyridine-3-carboxylic acid; dihydrochloride] | 97.78% | 97.77% | much more stable than its freebase form | 97.80% |  | 
CNc1cc(F)c(F)c2c1[nH]c1ncc(-c3cnc4c(c3)c(=O)c(C(=O)O)cn4C)c(N3CC[C@H]4CN(C)C[C@H]43)c12 [Freebase of Example 8, 6-[5,6-difluoro-8-(methylamino)-4-[(3aS,6aS)-5-methyl-2,3,3a,4,6,6a-hexahydropyrrolo[2,3-c]pyrrol-1-yl]-9H-pyrido[2,3-b]indol-3-yl]-1-methyl-4-oxo-1,8-naphthyridine-3-carboxylic acid] |  |  |  | 97.96% | 96.72% | 91.08%
